We go through six compounds from US20250099446A1, “HYBRID PHARMACEUTICAL COMPOSITION OBTAINED BY CONJUGATION OF A PROTON PUMP INHIBITOR AND A CARBON ANHYDRASE INHIBITOR” (EXO LAB ITALIA, S.r.l., priority 2022, published 2025).

Common to all, as to assay: Stopped-Flow kinetic assay, carbonic anhydrase inhibition
Assay [1] addresses CA IV (Homo sapiens, UniProt P22748).
The target of assay [2] is CA XII (Homo sapiens, UniProt O43570).
The target in assay [3] is CA II (Homo sapiens, UniProt P00918).
Assay [4] concerns the target CA IX (Homo sapiens, UniProt Q16790).
Assay [5] has as its target CA I (Homo sapiens, UniProt P00915).

CA XII, sequence (O43570 25-354): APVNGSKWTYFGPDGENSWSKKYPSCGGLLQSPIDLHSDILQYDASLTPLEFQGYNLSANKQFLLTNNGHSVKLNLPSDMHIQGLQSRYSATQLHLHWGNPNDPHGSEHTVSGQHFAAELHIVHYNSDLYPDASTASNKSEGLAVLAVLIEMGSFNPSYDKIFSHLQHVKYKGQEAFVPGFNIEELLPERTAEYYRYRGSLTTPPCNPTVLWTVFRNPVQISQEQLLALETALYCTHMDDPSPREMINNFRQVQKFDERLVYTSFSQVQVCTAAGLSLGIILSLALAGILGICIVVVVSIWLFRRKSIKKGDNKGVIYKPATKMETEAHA
CA I, sequence (P00915 whole entry): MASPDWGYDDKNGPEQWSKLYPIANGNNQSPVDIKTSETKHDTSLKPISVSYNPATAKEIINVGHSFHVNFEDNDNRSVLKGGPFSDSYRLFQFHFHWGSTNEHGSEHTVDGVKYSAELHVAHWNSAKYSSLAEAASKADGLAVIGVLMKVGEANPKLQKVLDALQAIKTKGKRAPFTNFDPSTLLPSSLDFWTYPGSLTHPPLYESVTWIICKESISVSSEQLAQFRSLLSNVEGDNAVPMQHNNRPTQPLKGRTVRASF
CA IV, sequence (P22748 19-284): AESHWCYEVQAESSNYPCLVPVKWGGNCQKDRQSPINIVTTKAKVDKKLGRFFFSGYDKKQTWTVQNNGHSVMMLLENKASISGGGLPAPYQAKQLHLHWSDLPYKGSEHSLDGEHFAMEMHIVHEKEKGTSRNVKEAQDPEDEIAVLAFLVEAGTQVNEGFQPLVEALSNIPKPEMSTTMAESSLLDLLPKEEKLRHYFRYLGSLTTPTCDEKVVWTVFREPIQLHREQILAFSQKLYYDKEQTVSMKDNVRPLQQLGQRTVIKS

Usually Ki stands for the dissociation constant of the complex between target and ligand, obtained from inhibition or displacement. Low values mean tighter binding, high ones weaker binding. In the case of `Cc1c(OCC(F)(F)F)ccnc1C[S+]([O-])c1nc2ccccc2n1C(=O)OCCOc1ccc2oc(=O)ccc2c1` (stereo not shown) [Compound A1, 2-((2-Osso-2H-cromen-6-il)ossi)etil 2-(((3-metil-4-(2,2,2-trifluoroetossi)piridin-2-il)metil)sulfinil)-1H-benzo[d]imidazolo-1 carbossilato], the Ki in assay [1] is 14.4 nM; in assay [2], 53 nM; in assay [3], over 10000 nM; in assay [4] it was 79.2 nM; in assay [5], over 10000 nM.

Take `Cc1c(OCC(F)(F)F)ccnc1C[S+]([O-])c1nc2ccccc2n1C(=O)OCCOc1ccc2ccc(=O)oc2c1` (stereo not shown) [Compound A2, 2-((2-Oxo-2H-chromen-7-yl)oxy)ethyl 2-(((3-methyl-4-(2,2,2-trifluoroethoxy)pyridin-2-yl)methyl)sulfinyl)-1H-benzo[d]imidazole-1 carboxylate]: the inhibition constant Ki in assay [1] was 10.3 nM; in assay [2] it was 60.3 nM; in assay [3] it was over 10000 nM; in assay [4] it was 97.2 nM; in assay [5], over 10000 nM.

Consider `Cc1c(OCC(F)(F)F)ccnc1C[S+]([O-])c1nc2ccccc2n1C(=O)OCCCOc1ccc2oc(=O)ccc2c1` (stereo not shown) [Compound A3], for which the Ki in assay [1] is 6.4 nM; in assay [2], 8.9 nM; in assay [3], over 10000 nM; in assay [4] it was 41.6 nM; in assay [5] it was over 10000 nM.

On to `Cc1c(OCC(F)(F)F)ccnc1C[S+]([O-])c1nc2ccccc2n1C(=O)OCCCOc1ccc2ccc(=O)oc2c1` (stereo not shown) [Compound A4], for which the Ki in assay [1] was 7.7 nM; in assay [2] it was 20.6 nM; in assay [3] it was over 10000 nM; in assay [4], 47 nM; in assay [5], over 10000 nM.

On to `O=c1ccc2cc(OCCO)ccc2o1` [Compound G1A, 6-(2-hydroxyethoxy)-2H-chromen-2-one], for which the Ki in assay [3] was over 10000 nM; in assay [4], 306 nM; in assay [5], over 10000 nM.

As for `O=c1ccc2ccc(OCCO)cc2o1` [Compound G1B, 7-(2-idrossietossi)-2H-cromen-2-one], the results for the Ki in assay [3] and in assay [4] were over 10000 nM and 334 nM, respectively.
